The values below are quoted from earlier work in US7232830B2, “Method for treatment of neurodegenerative diseases and effects of aging” (priority 1998, dated 2007).

Counter-ions that a name gives are not always drawn.

Data set [1] relates to histamine metabolism in the mouse brain.
For data set [2], the target named is T1, MAO-B (Rattus norvegicus, UniProt P19643).
T1 construct: in vitro on monoamine oxidase activity in the rat brain; host or cells: rat brain
T1 sequence (P19643 1-520): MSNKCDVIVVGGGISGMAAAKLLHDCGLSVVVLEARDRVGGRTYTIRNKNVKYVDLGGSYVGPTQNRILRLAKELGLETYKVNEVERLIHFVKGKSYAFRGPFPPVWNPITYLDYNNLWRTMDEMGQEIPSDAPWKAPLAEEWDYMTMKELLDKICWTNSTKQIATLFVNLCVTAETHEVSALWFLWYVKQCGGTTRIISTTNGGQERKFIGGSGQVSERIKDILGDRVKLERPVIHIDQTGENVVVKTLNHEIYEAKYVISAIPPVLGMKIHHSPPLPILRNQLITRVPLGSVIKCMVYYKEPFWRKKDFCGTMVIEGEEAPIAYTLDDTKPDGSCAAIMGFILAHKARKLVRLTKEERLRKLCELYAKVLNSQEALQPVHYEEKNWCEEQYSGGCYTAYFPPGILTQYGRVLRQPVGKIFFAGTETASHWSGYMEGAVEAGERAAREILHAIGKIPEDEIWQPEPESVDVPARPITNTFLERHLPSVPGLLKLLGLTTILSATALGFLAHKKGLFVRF
The note with it: in vitro, rat brain.

In the case of `COC(=O)[C@H]1[C@H]2C[C@@H]3c4[nH]c5cc(OC)ccc5c4CCN3C[C@H]2C[C@@H](OC(=O)c2cc(OC)c(OC)c(OC)c2)[C@@H]1OC` [reserpine], in data set [1], the “effect on a histidine decarboxylase inhibitor” value was “no significant affect” and the “effect on histamine increase induced by a histamine N-methyltransferase inhibitor” value was “inhibited the histamine increase”.
As to `S=C(NC1CCCCC1)N1CCC(c2cnc[nH]2)CC1` [thioperamide maleate], the “effect on MAO-B” value in data set [2] is “inhibits MAO-B”.
